Source: the NIST ThermoML archive (doi:10.1016/j.tca.2011.05.006)

How the values were obtained:
[1] = 101 kPa, Liquid, Vibrating tube method
[2] = xn = mol fraction of the nth substance listed; conditions: 101 kPa, Liquid, Vibrating tube method

CCCCO [butan-1-ol]
[1]
Conditions | mass density [kg/m3]
293.15 K | 809.78
298.15 K | 806.05
303.15 K | 802.03
313.15 K | 794.12

CCCCO [butan-1-ol] + CC(C)NC(C)C
[2], x2 = 0
Conditions | mass density [kg/m3]
293.15 K | 809.78
298.15 K | 806.05
303.15 K | 802.03
313.15 K | 794.12

CC(C)NC(C)C [diisopropylamine]
[1]
Conditions | mass density [kg/m3]
293.15 K | 720.89
298.15 K | 715.35
303.15 K | 710.23
313.15 K | 699.71

CC(C)NC(C)C [diisopropylamine] + CCCCCO
mass density [kg/m3], [2]
Conditions | 293.15 K | 298.15 K | 303.15 K | 313.15 K
x1 = 0.0815 | 809.89 | 805.62 | 801.64 | 794.78
x1 = 0.16 | 804.18 | 799.78 | 795.61 | 788.52
x1 = 0.2392 | 797.77 | 793.23 | 788.98 | 780.98
x1 = 0.35 | 787.88 | 783.17 | 778.74 | 769.75
x1 = 0.4401 | 779.23 | 774.43 | 769.93 | 760.48
x1 = 0.5597 | 767.21 | 762.29 | 757.69 | 748.46
x1 = 0.6498 | 757.9 | 752.85 | 748.14 | 739.55
x1 = 0.7356 | 748.9 | 743.79 | 738.95 | 730.94
x1 = 0.8497 | 736.82 | 731.52 | 726.57 | 718.73
x1 = 0.9379 | 727.48 | 722.03 | 716.97 | 708.08
x1 = 1 | 720.89 | 715.35 | 710.23 | 699.71

CC(C)NC(C)C [diisopropylamine] + CCCCO
mass density [kg/m3], [2]
Conditions | 293.15 K | 298.15 K | 303.15 K | 313.15 K
x1 = 0.0815 | 804.64 | 800.71 | 796.89 | 789.72
x1 = 0.1611 | 798.64 | 794.65 | 790.84 | 783.86
x1 = 0.2404 | 792.1 | 788 | 784.11 | 777.07
x1 = 0.3496 | 782.52 | 778.41 | 774.3 | 767.06
x1 = 0.44 | 774.49 | 770.21 | 766.09 | 758.54
x1 = 0.56 | 763.71 | 759.1 | 754.95 | 747.2
x1 = 0.6499 | 755.59 | 750.61 | 746.56 | 738.57
x1 = 0.74 | 747.35 | 741.97 | 737.86 | 729.62
x1 = 0.8484 | 736.91 | 731.98 | 727 | 718.21
x1 = 0.9384 | 727.64 | 721.96 | 717.35 | 707.61
x1 = 1 | 720.89 | 715.35 | 710.23 | 699.71

CC(C)NC(C)C [diisopropylamine] + CCCO
mass density [kg/m3], [2]
Conditions | 293.15 K | 298.15 K | 303.15 K | 313.15 K
x1 = 0.0813 | 796.38 | 793.94 | 791.19 | 784.48
x1 = 0.1608 | 791.55 | 788.58 | 785.66 | 779.04
x1 = 0.2398 | 785.63 | 782.57 | 779.21 | 772.45
x1 = 0.3497 | 777.13 | 773.41 | 769.55 | 762.48
x1 = 0.4398 | 769.26 | 765.67 | 761.55 | 754.19
x1 = 0.5546 | 760.03 | 755.85 | 751.48 | 743.87
x1 = 0.6487 | 752.32 | 747.75 | 743.28 | 735.48
x1 = 0.7383 | 744.72 | 740.05 | 735.49 | 727.35
x1 = 0.8491 | 735.16 | 730.09 | 725.47 | 716.62
x1 = 0.9395 | 726.79 | 721.53 | 716.61 | 706.82
x1 = 1 | 720.89 | 715.35 | 710.23 | 699.71
